This assay deals with Human immunodeficiency virus. The assay can be described thus: Antiviral activity against HIV infected in human 1A2 cells assessed as protection against virus-induced cytopathic effect by measuring cell viability at 5 ug/ml after 96 hrs by MTT assay relative to control. The assay is classed as functional. On the technique in general: Cytopathic effects are the visible damage that an infection or toxin causes in cultured cells.
For `O=C(NCCc1ccccc1)NCCc1ccccc1C(=O)NCCc1ccccc1C(=O)NCCc1ccccc1C(=O)NCCc1ccccc1`, the Activity is recorded as 17 - 48%.
On to `COC(=O)NCCc1ccccc1C(=O)NCCc1ccccc1`, for which the Activity was 17 - 48%.
Under `O=C(NCCc1ccccc1C(=O)NCCc1ccccc1)NCCc1ccccc1C(=O)NCCc1ccccc1` stands 17 - 48%.
`COC(=O)NCCc1ccccc1C(=O)NCCc1ccccc1C(=O)NCCc1ccccc1C(=O)NCCc1ccccc1`: the Activity was 17 - 48%.
In the case of `O=C(NCCc1ccccc1C(=O)NCCc1ccccc1)NCCc1ccccc1C(=O)NCCc1ccccc1C(=O)NCCc1ccccc1` it was 17 - 48%; in that of `O=C(NCCc1ccccc1)NCCc1ccccc1C(=O)NCCc1ccccc1C(=O)NCCc1ccccc1`, 17 - 48%.
Under `COC(=O)NCCc1ccccc1C(=O)NCCc1ccccc1C(=O)NCCc1ccccc1` stands 17 - 48%; under `COC(=O)NCCc1ccccc1C(=O)NCCc1ccccc1C(=O)NCCc1ccccc1C(=O)NCCc1ccccc1C(=O)NCCc1ccccc1`, 17 - 48%.

Values taken from ChEMBL document CHEMBL4190205 (2017).
